From ChEMBL document CHEMBL6153066, “Discovery of CZY43 as a new small-molecule degrader of pseudokinase HER3” (Eur J Med Chem, 2025) come the findings set out here.

pIC50: −log10 of the molar value. Activity calls are given as the source filed them. No cut-off for these calls is given here.

The test system of assay [1] is SK-BR-3. Description: Antiproliferative activity against human SK-BR-3 cells incubated for 72 hrs by CCK8 assay. The note with it: SK-BR-3, 72 h. The class given is functional, cell-based.
Assay [2] has as its target T1, Receptor tyrosine-protein kinase erbB-3 (Homo sapiens, UniProt P21860). Description: Induction of hydrophobic tag-mediated HER3 degradation in human SK-BR-3 cells assessed as decrease in p-AKT level upto 2000 nM incubated for 8 hrs by immunoblot analysis. The class given is cell-based. (In general: A western blot detects proteins with antibodies after separation by electrophoresis.)

The target in assay [3] is T1, Receptor tyrosine-protein kinase erbB-3. Description: Induction of hydrophobic tag-mediated HER3 degradation in human SK-BR-3 cells incubated for 8 hrs by immunoblot analysis. It counts as cell-based.
For assay [4] the target is unchanged. As to the kind of experiment: Induction of HER3 ubiquitination in human SK-BR-3 cells at 1 uM incubated for 8 hrs by Co-IP method. It counts as cell-based.
In assay [5] the test system is SK-BR-3. Description: Induction of autophagy in human SK-BR-3 cells assessed as increase in LC3B-II level upto 2 uM incubated for 8 hrs by Western blot analysis. The class given is functional, cell-based.
Assay [6] has as its target T1, Receptor tyrosine-protein kinase erbB-3. Description: Induction of hydrophobic tag-mediated HER3 degradation in human SK-BR-3 cells assessed as decrease in HER3 level upto 2000 nM incubated for 8 hrs by immunoblot analysis. It counts as cell-based.
Assay [7] shares this target. Description: Induction of Hsp90 binding to HER3 in human SK-BR-3 cells at 1 uM incubated for 8 hrs by Co-IP method. The class given is cell-based.
The target is the same in assay [8]. Description: Induction of hydrophobic tag-mediated HER3 degradation in human SK-BR-3 cells at 1 uM incubated for 8 hrs in presence of chloroquine by immunoblot analysis. The class given is cell-based.
Assay [9] shares this target. Description: Induction of hydrophobic tag-mediated HER3 degradation in human MDA-MB-453 cells upto 2000 nM incubated for 8 hrs by immunoblot analysis. It counts as cell-based.
Assay [10] has the same target. Description: Induction of hydrophobic tag-mediated HER3 degradation in human SK-BR-3 cells at 1000 nM by immunoblot analysis. It counts as cell-based. The conditions noted are these: time <= 24.0 hrs.
Assay [11] shares this target. Description: Induction of hydrophobic tag-mediated HER3 degradation in human SK-BR-3 cells at 1 uM incubated for 8 hrs in presence of MG132 by immunoblot analysis. It counts as cell-based.
The subject of assay [12] is SK-BR-3. Description: Inhibition of cell adhesion in human SK-BR-3 cells upto 2000 nM incubated for 8 hrs by crystal violet staining based analysis. It counts as functional.
The target in assay [13] is T1, Receptor tyrosine-protein kinase erbB-3. Description: Induction of hydrophobic tag-mediated HER3 degradation in human A549 cells upto 2000 nM incubated for 8 hrs by immunoblot analysis. The class given is cell-based.

T1 sequence (P21860 whole entry): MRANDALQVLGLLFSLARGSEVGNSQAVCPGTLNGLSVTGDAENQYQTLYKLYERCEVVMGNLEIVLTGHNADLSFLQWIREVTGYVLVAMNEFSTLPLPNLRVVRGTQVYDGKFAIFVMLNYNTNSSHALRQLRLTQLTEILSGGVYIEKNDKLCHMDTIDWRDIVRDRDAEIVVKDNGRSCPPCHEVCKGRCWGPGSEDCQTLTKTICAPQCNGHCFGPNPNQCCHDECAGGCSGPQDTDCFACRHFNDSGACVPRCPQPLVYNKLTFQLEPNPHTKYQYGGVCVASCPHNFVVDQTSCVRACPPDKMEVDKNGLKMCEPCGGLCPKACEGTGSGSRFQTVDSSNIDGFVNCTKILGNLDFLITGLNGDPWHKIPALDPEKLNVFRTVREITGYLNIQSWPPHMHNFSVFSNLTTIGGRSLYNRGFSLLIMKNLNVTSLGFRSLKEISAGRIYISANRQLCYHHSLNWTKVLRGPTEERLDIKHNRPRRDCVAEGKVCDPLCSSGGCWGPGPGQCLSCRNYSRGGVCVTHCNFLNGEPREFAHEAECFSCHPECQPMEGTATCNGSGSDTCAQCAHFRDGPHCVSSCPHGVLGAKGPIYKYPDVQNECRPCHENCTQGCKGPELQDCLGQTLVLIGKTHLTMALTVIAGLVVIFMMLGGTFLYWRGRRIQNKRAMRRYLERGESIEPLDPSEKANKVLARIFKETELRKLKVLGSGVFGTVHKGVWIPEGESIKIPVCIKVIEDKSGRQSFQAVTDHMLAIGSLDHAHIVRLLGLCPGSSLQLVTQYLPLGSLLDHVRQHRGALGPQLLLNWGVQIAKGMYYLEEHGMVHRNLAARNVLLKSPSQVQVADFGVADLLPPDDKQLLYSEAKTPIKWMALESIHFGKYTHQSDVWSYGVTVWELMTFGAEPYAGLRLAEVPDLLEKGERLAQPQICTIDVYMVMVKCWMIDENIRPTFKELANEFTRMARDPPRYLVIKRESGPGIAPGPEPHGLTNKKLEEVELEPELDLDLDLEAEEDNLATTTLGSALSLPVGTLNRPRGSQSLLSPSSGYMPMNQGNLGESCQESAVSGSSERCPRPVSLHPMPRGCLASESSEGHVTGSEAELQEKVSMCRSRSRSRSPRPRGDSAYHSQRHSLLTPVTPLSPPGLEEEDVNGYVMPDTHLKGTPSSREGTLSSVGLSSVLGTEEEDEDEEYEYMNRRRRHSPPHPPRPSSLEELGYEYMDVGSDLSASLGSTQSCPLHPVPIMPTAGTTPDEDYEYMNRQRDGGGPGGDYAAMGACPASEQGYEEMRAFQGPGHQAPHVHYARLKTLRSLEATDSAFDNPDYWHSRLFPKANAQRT

By pIC50 is commonly meant −log10 of the IC50, conventionally taken in molar units. In the case of `COc1cc(Nc2c(C#N)cnc3cc(OCCCN4CCN(C)CC4)c(OC)cc23)c(Cl)cc1Cl` [BOSUTINIB], the negative logarithm of the IC50 (pIC50) in the assay on SK-BR-3 [1] is 5.29.
The DC50 is the concentration at which degradation of the target reaches its halfway point. Low readings indicate degradation at low concentration, high ones degradation only at high concentration. For the compound `COc1cc(Nc2c(C#N)cnc3cc(OCCCN4CCC5(CC4)CCN(CCC46C[C@H]7C[C@@H](C4)C[C@@H](C6)C7)CC5)c(OC)cc23)c(Cl)cc1Cl`, the Activity result was “Active; Exhibited As More Potent Than Bosutinib” in [2], “Dose-dependent-effect” in [3] (dose <= 2000.0 nM), “Active; Exhibited As More Potent Than Bosutinib” in [6] and “Time-dependent-effect” in assay [10]. The same compound displayed a DC50 in [3] of 559 nM. Further, the result (in assay [4]; in the assay with SK-BR-3 [5]; in assay [7]; in [9]; in [11]; in [13]) was Active. For the same compound, the outcome in [8] was inactive. This compound also had a pIC50 with SK-BR-3 [1] of 6.28. Moreover, the inhibition result in the assay on SK-BR-3 [12] was “Active”.
